In data set [1] the test system is patients with ASD. Kind of data set: Clinical Global Impression-Improvement (CGI-I). Format: in vivo, human. Particulars: vs control group; P<0.05 only for combination. Here is the method:
FIG. 2. Proportion of subjects displaying improvement in CGI-I overtime among all subjects within a treatment condition.
Clinical Global Impression (CGI) was assessed to evaluate ASD symptoms and the relative extent of improvement in symptoms at each visiting time. […] The waterfall data of CGI score reduction in each group is shown in supplement FIG. 6.
This clinical trial is a randomized, double-blind, and placebo-controlled study in accordance with the Consolidated Standards of Reporting Trials (CONSORT) guidelines. Subjects were randomized to two groups with 1:1 ratio into this two-stage study. To achieve a statistical power of 80% for primary outcomes with a large effect size of 0.8 (Cohen's d) assumed, a total of 60 participants (30 in each arm) were required. However, as we are primarily interested in studying the preliminary effects of the proposed treatment, we enrolled and randomized 35 subjects who were included in the data analysis. In stage 1, the probiotics group received oral probiotics PS128 while the placebo group received oral placebo for 16 weeks. In stage 2, both groups continued their respective administration and simultaneously added intranasal oxytocin spray. The treatment proceeded for a total of 28 weeks with 3 visits for outcomes measurement at 0, 16 weeks, and 28 weeks (V1, V2, and V3, respectively). […]

For data set [2] the following is noted: 32 IU per day, patients age 3-8 years old; cited from earlier work.
In data set [3] the test system is mouse models of ASD. The following applies: two mouse models of ASD; cited from earlier work.

For `CC[C@H](C)[C@@H]1NC(=O)[C@H](Cc2ccc(O)cc2)NC(=O)[C@@H](N)CSSC[C@@H](C(=O)N2CCC[C@H]2C(=O)N[C@@H](CC(C)C)C(=O)NCC(N)=O)NC(=O)[C@H](CC(N)=O)NC(=O)[C@H](CCC(N)=O)NC1=O` [OXT, Oxytocin], the “proportion of subjects showing improvement in CGI-I (CGI-I≤3)” value in data set [1] is on record as “non-significant, though a trend of improvement”. The safety of dosage result in data set [2] was “safe and adequate”. Besides, the effect on sociability result in data set [3] is “enhanced sociability”.

The values above are taken from US20240100104A1, “METHODS AND COMPOSITION FOR THE TREATMENT OF AUTISM SPECTRUM DISORDER” (The General Hospital Corporation, priority 2020, published 2024).
